Test results published in PubChem BioAssay (NCI).
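All cell lines were grown in 96-well plates and treated with compound for 48 hours. GI50 marks 50% less growth. TGI is the concentration that stops growth completely.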

Columns and labels:
Assay in all cases: growth of human tumour cells (NCI), 48 h
[1] = system: SF-539 CNS
[2] = system: SR leukemia
[3] = system: ACHN renal
[4] = system: MCF7 breast
[5] = system: RPMI-8226 leukemia
[6] = system: PC-3 prostate
[7] = system: SNB-78 CNS
[8] = system: HCT-15 colon
[9] = system: MALME-3M melanoma
[10] = system: HT29 colon
[11] = system: UACC-257 melanoma
[12] = system: OVCAR-4 ovarian
[13] = system: M14 melanoma
[14] = system: HS 578T breast
[15] = system: LXFL 529 NSCLC
[16] = system: BT-549 breast
[17] = system: TK-10 renal
[18] = system: CCRF-CEM leukemia
[19] = system: DMS 273 small cell lung
[20] = system: MDA-MB-231 breast
[21] = system: EKVX NSCLC
[22] = system: HL-60(TB) leukemia
[23] = system: LOX IMVI melanoma
[24] = system: NCI-H460 lung
[25] = system: SNB-75 CNS
[26] = system: SK-OV-3 ovarian
[27] = system: HCC-2998 colon
[28] = system: U251 CNS
[29] = system: M19-MEL melanoma
[30] = system: NCI-H522 lung
[31] = system: IGROV1 ovarian
[32] = system: 786-0 renal
[33] = system: SF-295 CNS
[34] = system: HOP-92 NSCLC
[35] = system: HCT-116 colon
[36] = system: OVCAR-5 ovarian
[37] = system: SK-MEL-5 melanoma
[38] = system: HOP-18 NSCLC
[39] = system: MDA-N
[40] = system: NCI-H23 lung
[41] = system: A549 NSCLC
[42] = system: MOLT-4 leukemia
[43] = system: RXF 393 renal
[44] = system: KM12 colon
[45] = system: OVCAR-8 ovarian
[46] = system: DLD-1 colon
[47] = system: HOP-62 NSCLC
[48] = system: CAKI-1 renal
[49] = system: KM20L2 colon
[50] = system: UACC-62 melanoma
[51] = system: SN12C renal
[52] = system: XF 498 CNS
[53] = system: A498 renal
[54] = system: SW-620 colon
[55] = system: SK-MEL-28 melanoma
[56] = system: COLO 205 colon
[57] = system: SF-268 CNS
[58] = system: NCI-H226 lung
[59] = system: K-562 leukemia
[60] = system: MDA-MB-435
[61] = system: UO-31 renal
[62] = system: SNB-19 CNS
[63] = system: OVCAR-3 ovarian
[64] = system: T-47D breast
[65] = system: DU-145 prostate
[66] = system: SK-MEL-2 melanoma
[67] = system: NCI/ADR-RES ovarian

What does the source list for `COc1c(OC(C)=O)c(OC(C)=O)cc2c1-c1ccc(SC)c(=O)cc1C(NC(C)=O)CC2` (stereo not drawn)?
TGI [1]: 0.846 µM; TGI [2]: > 100 µM; TGI [3]: > 100 µM; TGI [4]: > 100 µM; TGI [5]: > 100 µM; TGI [6]: > 100 µM; TGI [7]: > 100 µM; TGI [8]: > 97.5 µM; TGI [9]: > 100 µM; TGI [10]: > 100 µM; TGI [11]: > 100 µM; TGI [12]: > 100 µM; TGI [13]: > 100 µM; TGI [14]: 0.701 µM; TGI [15]: > 100 µM; TGI [16]: > 100 µM; TGI [17]: > 96.3 µM; TGI [18]: > 100 µM; TGI [19]: > 100 µM; TGI [20]: > 100 µM; TGI [21]: > 100 µM; TGI [22]: 0.61 µM; TGI [23]: > 100 µM; TGI [24]: > 56.1 µM; TGI [25]: 15.3 µM; TGI [26]: > 44 µM; TGI [27]: > 27.6 µM; TGI [28]: > 42.2 µM; TGI [29]: > 100 µM; TGI [30]: 0.576 µM; TGI [31]: > 100 µM; TGI [32]: > 100 µM; TGI [33]: 21.3 µM; TGI [34]: > 100 µM; TGI [35]: > 100 µM; TGI [36]: > 100 µM; TGI [37]: 0.794 µM; TGI [38]: > 100 µM; TGI [39]: 0.576 µM; TGI [40]: 28.7 µM; TGI [41]: > 100 µM; TGI [42]: > 100 µM; TGI [43]: > 86.7 µM; TGI [44]: > 100 µM; TGI [45]: > 100 µM; TGI [46]: > 100 µM; TGI [47]: > 100 µM; TGI [48]: > 87.1 µM; TGI [49]: 6.84 µM; TGI [50]: > 74.9 µM; TGI [51]: > 100 µM; TGI [52]: > 28.8 µM; TGI [53]: 56 µM; TGI [54]: > 100 µM; TGI [55]: > 100 µM; TGI [56]: 4.32 µM; TGI [57]: > 100 µM; TGI [58]: 33.1 µM; TGI [59]: > 43.8 µM; TGI [60]: 0.632 µM; TGI [61]: > 100 µM; TGI [62]: > 100 µM; TGI [63]: > 100 µM; TGI [64]: > 100 µM; TGI [65]: 4.12 µM; TGI [66]: > 100 µM; TGI [67]: > 100 µM

Which GI50 [1] does the source give for `CC(=O)[O][Ga]([Br])[O]C(C)=O` here?
Its GI50 is > 100 µM.

What about the TGI [1] of the same molecule?
The TGI was > 100 µM.

What about the GI50 [2] of the same molecule?
Its GI50 is > 100 µM.

And the TGI [2]?
Its TGI is > 100 µM.

And the GI50 [3]?
The GI50 was > 100 µM.

And the TGI [3]?
The TGI was > 100 µM.

And the GI50 [5]?
The GI50 was > 100 µM.

What about the TGI [5] of the same molecule?
The TGI was > 100 µM.

What about the GI50 [7] of the same molecule?
The GI50 was > 100 µM.

And the TGI [7]?
The TGI was > 100 µM.

What about the GI50 [9] of the same molecule?
Its GI50 is > 100 µM.

What about the TGI [9] of the same molecule?
Its TGI is > 100 µM.

And the GI50 [10]?
Its GI50 is > 100 µM.

What about the TGI [10] of the same molecule?
The TGI was > 100 µM.

What about the GI50 [11] of the same molecule?
Its GI50 is > 100 µM.

What about the TGI [11] of the same molecule?
Its TGI is > 100 µM.

What about the GI50 [12] of the same molecule?
Its GI50 is > 100 µM.

And the TGI [12]?
Its TGI is > 100 µM.

What about the GI50 [13] of the same molecule?
Its GI50 is > 100 µM.

What about the TGI [13] of the same molecule?
The TGI was > 100 µM.

What about the GI50 [15] of the same molecule?
The GI50 was > 100 µM.

And the TGI [15]?
Its TGI is > 100 µM.

What about the GI50 [17] of the same molecule?
The GI50 was > 100 µM.

What about the TGI [17] of the same molecule?
Its TGI is > 100 µM.

And the GI50 [18]?
The GI50 was > 100 µM.

And the TGI [18]?
Its TGI is > 100 µM.

What about the GI50 [19] of the same molecule?
Its GI50 is > 100 µM.

What about the TGI [19] of the same molecule?
The TGI was > 100 µM.

What about the GI50 [22] of the same molecule?
Its GI50 is > 100 µM.

What about the TGI [22] of the same molecule?
Its TGI is > 100 µM.

What about the GI50 [23] of the same molecule?
The GI50 was > 100 µM.

What about the TGI [23] of the same molecule?
Its TGI is > 100 µM.

What about the GI50 [24] of the same molecule?
The GI50 was > 100 µM.

And the TGI [24]?
The TGI was > 100 µM.

And the GI50 [25]?
Its GI50 is > 100 µM.

What about the TGI [25] of the same molecule?
Its TGI is > 100 µM.

What about the GI50 [26] of the same molecule?
Its GI50 is > 100 µM.

What about the TGI [26] of the same molecule?
Its TGI is > 100 µM.

What about the GI50 [28] of the same molecule?
Its GI50 is > 100 µM.

What about the TGI [28] of the same molecule?
Its TGI is > 100 µM.

What about the GI50 [29] of the same molecule?
The GI50 was > 100 µM.

What about the TGI [29] of the same molecule?
Its TGI is > 100 µM.

What about the GI50 [30] of the same molecule?
Its GI50 is > 100 µM.

What about the TGI [30] of the same molecule?
The TGI was > 100 µM.

What about the GI50 [31] of the same molecule?
The GI50 was > 100 µM.

And the TGI [31]?
The TGI was > 100 µM.

What about the GI50 [32] of the same molecule?
The GI50 was > 100 µM.

And the TGI [32]?
Its TGI is > 100 µM.

And the GI50 [33]?
The GI50 was > 100 µM.

What about the TGI [33] of the same molecule?
The TGI was > 100 µM.

And the GI50 [34]?
Its GI50 is > 100 µM.

What about the TGI [34] of the same molecule?
The TGI was > 100 µM.

And the GI50 [35]?
The GI50 was > 100 µM.

And the TGI [35]?
Its TGI is > 100 µM.

What about the GI50 [36] of the same molecule?
Its GI50 is > 100 µM.

What about the TGI [36] of the same molecule?
Its TGI is > 100 µM.

And the GI50 [37]?
The GI50 was > 100 µM.

What about the TGI [37] of the same molecule?
The TGI was > 100 µM.

What about the GI50 [38] of the same molecule?
Its GI50 is > 100 µM.

And the TGI [38]?
The TGI was > 100 µM.

And the GI50 [40]?
Its GI50 is > 100 µM.

And the TGI [40]?
The TGI was > 100 µM.

And the GI50 [41]?
The GI50 was > 100 µM.

What about the TGI [41] of the same molecule?
Its TGI is > 100 µM.

And the GI50 [42]?
The GI50 was > 100 µM.

And the TGI [42]?
The TGI was > 100 µM.

And the GI50 [43]?
The GI50 was > 100 µM.

And the TGI [43]?
Its TGI is > 100 µM.

And the GI50 [44]?
The GI50 was > 100 µM.

What about the TGI [44] of the same molecule?
The TGI was > 100 µM.

And the GI50 [45]?
The GI50 was > 100 µM.

What about the TGI [45] of the same molecule?
The TGI was > 100 µM.

What about the GI50 [46] of the same molecule?
Its GI50 is > 100 µM.

What about the TGI [46] of the same molecule?
Its TGI is > 100 µM.

What about the GI50 [48] of the same molecule?
The GI50 was > 100 µM.

What about the TGI [48] of the same molecule?
Its TGI is > 100 µM.

And the GI50 [49]?
The GI50 was > 100 µM.

What about the TGI [49] of the same molecule?
Its TGI is > 100 µM.

And the GI50 [50]?
Its GI50 is > 100 µM.

And the TGI [50]?
Its TGI is > 100 µM.

And the GI50 [51]?
Its GI50 is > 100 µM.

And the TGI [51]?
The TGI was > 100 µM.

What about the GI50 [52] of the same molecule?
Its GI50 is > 100 µM.

And the TGI [52]?
The TGI was > 100 µM.

And the GI50 [53]?
The GI50 was > 100 µM.

And the TGI [53]?
Its TGI is > 100 µM.

And the GI50 [54]?
The GI50 was > 100 µM.

And the TGI [54]?
Its TGI is > 100 µM.

And the GI50 [55]?
Its GI50 is > 100 µM.

What about the TGI [55] of the same molecule?
The TGI was > 100 µM.

What about the GI50 [56] of the same molecule?
Its GI50 is > 100 µM.

What about the TGI [56] of the same molecule?
Its TGI is > 100 µM.

And the GI50 [57]?
The GI50 was > 100 µM.

And the TGI [57]?
Its TGI is > 100 µM.

And the GI50 [58]?
Its GI50 is > 100 µM.

What about the TGI [58] of the same molecule?
The TGI was > 100 µM.

And the GI50 [59]?
The GI50 was > 100 µM.

And the TGI [59]?
Its TGI is > 100 µM.

What about the GI50 [61] of the same molecule?
Its GI50 is > 100 µM.

And the TGI [61]?
Its TGI is > 100 µM.

And the GI50 [62]?
Its GI50 is > 100 µM.

And the TGI [62]?
The TGI was > 100 µM.

What about the GI50 [63] of the same molecule?
Its GI50 is > 100 µM.

What about the TGI [63] of the same molecule?
Its TGI is > 100 µM.

And the GI50 [66]?
Its GI50 is > 100 µM.

And the TGI [66]?
Its TGI is > 100 µM.
